From patent US5208248A, “Indazole-substituted five-membered heteroaromatic compounds” (Merck Sharpe & Dohme, Ltd., priority 1991, dated 1993) come the findings set out here.

The EC50 is the concentration needed to bring the measured effect to its halfway point.

The target of this experiment is T1, 5-HT1 -like receptor (Oryctolagus cuniculus, UniProt P49144).
T1 construct: contraction of the saphenous vein of New Zealand White rabbits; from tissue; host or cells: saphenous vein of New Zealand White rabbits
In words: Agonist-mediated contraction of rabbit saphenous vein. Set-up: species or system New Zealand White rabbits. To be noted: from plots of percentage 5-HT (1 μm) response against agonist concentration, read-out: pEC50 (-log10 EC50), agonist potency (converted). The procedure: The activity of test compounds as agonists of the 5-HT1 -like receptor was measured in terms of their ability to mediate contraction of the saphenous vein of New Zealand White rabbits, using the procedure described in Arch. Pharm., 1990, 342, 111. Agonist potencies were calculated as -log10 EC50 (pEC50) values, from plots of percentage 5-HT (1 μm) response against the concentration of the agonist.

SMILES strings stand for the structures. Structures can show the parent of a compound that is named as a salt.

T1 sequence (P49144 whole entry): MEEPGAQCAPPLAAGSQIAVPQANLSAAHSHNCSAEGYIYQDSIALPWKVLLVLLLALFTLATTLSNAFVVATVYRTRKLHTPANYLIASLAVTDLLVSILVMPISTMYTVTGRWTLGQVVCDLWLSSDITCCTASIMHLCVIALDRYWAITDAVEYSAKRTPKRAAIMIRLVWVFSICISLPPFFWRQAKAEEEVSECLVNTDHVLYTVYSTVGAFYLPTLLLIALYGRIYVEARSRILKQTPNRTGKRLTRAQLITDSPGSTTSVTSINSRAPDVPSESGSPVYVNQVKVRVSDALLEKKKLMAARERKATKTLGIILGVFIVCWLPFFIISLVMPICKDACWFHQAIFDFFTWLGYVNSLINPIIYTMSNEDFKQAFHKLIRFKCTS

As for `Cc1noc(-c2ccc3[nH]nc(CCN)c3c2)n1` [Example 2, 2-[5-(3-Methyl-1,2,4-oxadiazol-5-yl)-1H-indazol-3-yl])ethylamine hydrogen oxalate], the concentration for a half-maximal effect (EC50) was at most 10 µM.
